According to ChEMBL document CHEMBL3885881, “DrugMatrix”:

Species on record: Rattus norvegicus
Test: DrugMatrix - Regimen: Daily Repeat
Format: toxicity, organism-based, Sprague-Dawley
Design: regimen Daily Repeat, gender Male, age 6-8 weeks
Conditions: in vivo, po, 0 mg/kg, route oral GAVAGE, dose level Control, vehicle 100 % WATER; for ABSOLUTE BASOPHIL / ABSOLUTE EOSINOPHIL / ABSOLUTE LYMPHOCYTE / ABSOLUTE MONOCYTE / ABSOLUTE SEGMENTED NEUTROPHIL / BASOPHIL / EOSINOPHIL / ERYTHROCYTE COUNT / HEMATOCRIT / HEMOGLOBIN / LEUKOCYTE COUNT / LYMPHOCYTE / MEAN CORPUSCULAR HEMOGLOBIN / MEAN CORPUSCULAR HEMOGLOBIN CONCENTRATION / MEAN CORPUSCULAR VOLUME / MONOCYTE / NEUTROPHIL / NUCLEATED RED BLOOD CELLS / PLATELET COUNT: tissue Blood; for ALANINE AMINOTRANSFERASE / ALBUMIN / ALKALINE PHOSPHATASE / ASPARTATE AMINOTRANSFERASE / BLOOD UREA NITROGEN / CARBON DIOXIDE / CHLORIDE / CHOLESTEROL / CREATINE PHOSPHOKINASE / CREATININE / GLUCOSE / LACTATE DEHYDROGENASE / LIPASE / PHOSPHORUS / POTASSIUM / SODIUM / TOTAL BILIRUBIN / TOTAL PROTEIN / URIC ACID: tissue Plasma

For `C[N+](C)(C)CCO.[Cl-]` [CHOLINE CHLORIDE], the “ABSOLUTE BASOPHIL” value (72 h, time 3 day) was 0 CELLS/uL, the “ABSOLUTE EOSINOPHIL” value (72 h, time 3 day) was 0 CELLS/uL and the “ABSOLUTE LYMPHOCYTE” value (72 h, time 3 day) was 10386.33 CELLS/uL. The “ABSOLUTE MONOCYTE” value (72 h, time 3 day) was 88.5 CELLS/uL, the “ABSOLUTE SEGMENTED NEUTROPHIL” value (72 h, time 3 day) was 1008.5 CELLS/uL and the BASOPHIL (72 h, time 3 day) was 0%. For the same molecule, the EOSINOPHIL (72 h, time 3 day) was 0%, the “ERYTHROCYTE COUNT” value (72 h, time 3 day) was 5.16 x10E6/uL and the HEMATOCRIT (72 h, time 3 day) was 32.43%. The HEMOGLOBIN (72 h, time 3 day) was 12.98 G/DL, the “LEUKOCYTE COUNT” value (72 h, time 3 day) was 11.48 x10E3/uL and the LYMPHOCYTE (72 h, time 3 day) was 92.33%. For the same molecule, the “MEAN CORPUSCULAR HEMOGLOBIN” value (72 h, time 3 day) was 25.23 pg, the “MEAN CORPUSCULAR HEMOGLOBIN CONCENTRATION” value (72 h, time 3 day) was 40.08 G/DL and the “MEAN CORPUSCULAR VOLUME” value (72 h, time 3 day) was 62.95 fL. For the same molecule, the MONOCYTE (72 h, time 3 day) was 0.67%, the NEUTROPHIL (72 h, time 3 day) was 7% and the “NUCLEATED RED BLOOD CELLS” value (72 h, time 3 day) was 0 /100WBC. The “PLATELET COUNT” value (72 h, time 3 day) was 1016.67 x10E3/uL, the “ALANINE AMINOTRANSFERASE” value (72 h, time 3 day) was 62.17 u/L and the ALBUMIN (72 h, time 3 day) was 3.95 G/DL. The “ALKALINE PHOSPHATASE” value (72 h, time 3 day) was 363.5 u/L, the “ASPARTATE AMINOTRANSFERASE” value (72 h, time 3 day) was 118 u/L and the “BLOOD UREA NITROGEN” value (72 h, time 3 day) was 14.5 mg/dL. The “CARBON DIOXIDE” value (72 h, time 3 day) was 22.83 mmol/L, the CHLORIDE (72 h, time 3 day) was 100.67 MEQ/L and the CHOLESTEROL (72 h, time 3 day) was 66 mg/dL. The “CREATINE PHOSPHOKINASE” value (72 h, time 3 day) was 1308.83 u/L, the CREATININE (72 h, time 3 day) was 0.22 mg/dL and the GLUCOSE (72 h, time 3 day) was 187.5 mg/dL. The “LACTATE DEHYDROGENASE” value (72 h, time 3 day) was 380.17 u/L, the LIPASE (72 h, time 3 day) was 16.17 u/L and the PHOSPHORUS (72 h, time 3 day) was 14.27 mg/dL. For the same molecule, the POTASSIUM (72 h, time 3 day) was 6.8 MEQ/L, the SODIUM (72 h, time 3 day) was 142.53 MEQ/L and the “TOTAL BILIRUBIN” value (72 h, time 3 day) was 0.2 mg/dL. The “TOTAL PROTEIN” value (72 h, time 3 day) was 5.68 G/DL, the “URIC ACID” value (72 h, time 3 day) was 2.87 mg/dL and the “ABSOLUTE BASOPHIL” value (120 h, time 5 day) was 0 CELLS/uL. The “ABSOLUTE EOSINOPHIL” value (120 h, time 5 day) was 80 CELLS/uL, the “ABSOLUTE LYMPHOCYTE” value (120 h, time 5 day) was 13301.33 CELLS/uL and the “ABSOLUTE MONOCYTE” value (120 h, time 5 day) was 180.83 CELLS/uL. The “ABSOLUTE SEGMENTED NEUTROPHIL” value (120 h, time 5 day) was 1187.83 CELLS/uL, the BASOPHIL (120 h, time 5 day) was 0% and the EOSINOPHIL (120 h, time 5 day) was 0.5%. The “ERYTHROCYTE COUNT” value (120 h, time 5 day) was 5.54 x10E6/uL, the HEMATOCRIT (120 h, time 5 day) was 35.65% and the HEMOGLOBIN (120 h, time 5 day) was 14.22 G/DL. For the same molecule, the “LEUKOCYTE COUNT” value (120 h, time 5 day) was 14.75 x10E3/uL, the LYMPHOCYTE (120 h, time 5 day) was 90.67% and the “MEAN CORPUSCULAR HEMOGLOBIN” value (120 h, time 5 day) was 25.65 pg. The “MEAN CORPUSCULAR HEMOGLOBIN CONCENTRATION” value (120 h, time 5 day) was 39.88 G/DL, the “MEAN CORPUSCULAR VOLUME” value (120 h, time 5 day) was 64.35 fL and the MONOCYTE (120 h, time 5 day) was 1%. For the same molecule, the NEUTROPHIL (120 h, time 5 day) was 7.83%, the “NUCLEATED RED BLOOD CELLS” value (120 h, time 5 day) was 0.17 /100WBC and the “PLATELET COUNT” value (120 h, time 5 day) was 1285.33 x10E3/uL. The “ALANINE AMINOTRANSFERASE” value (120 h, time 5 day) was 51.67 u/L, the ALBUMIN (120 h, time 5 day) was 4.08 G/DL and the “ALKALINE PHOSPHATASE” value (120 h, time 5 day) was 391.5 u/L. For the same molecule, the “ASPARTATE AMINOTRANSFERASE” value (120 h, time 5 day) was 99.5 u/L, the “BLOOD UREA NITROGEN” value (120 h, time 5 day) was 15.5 mg/dL and the “CARBON DIOXIDE” value (120 h, time 5 day) was 28.33 mmol/L. For the same molecule, the CHLORIDE (120 h, time 5 day) was 101.83 MEQ/L, the CHOLESTEROL (120 h, time 5 day) was 67.83 mg/dL and the “CREATINE PHOSPHOKINASE” value (120 h, time 5 day) was 771.33 u/L. The CREATININE (120 h, time 5 day) was 0.23 mg/dL, the GLUCOSE (120 h, time 5 day) was 156.5 mg/dL and the “LACTATE DEHYDROGENASE” value (120 h, time 5 day) was 544.33 u/L. It also gave an LIPASE (120 h, time 5 day) of 10.17 u/L, a PHOSPHORUS (120 h, time 5 day) of 12.03 mg/dL and a POTASSIUM (120 h, time 5 day) of 6.81 MEQ/L. For the same molecule, the SODIUM (120 h, time 5 day) was 144.13 MEQ/L, the “TOTAL BILIRUBIN” value (120 h, time 5 day) was 0.22 mg/dL and the “TOTAL PROTEIN” value (120 h, time 5 day) was 6 G/DL. The “URIC ACID” value (120 h, time 5 day) was 2.18 mg/dL.
